One compound from US20060148683A1, “Detection and treatment of intravascular lesions” (priority 2001, published 2006) can be followed below.

Molecules are shown by their SMILES. Positions of bridges follow the written chain, without caps; N, C: chain ends. Non-standard residues stand in square brackets, D forms with d. Residues, ends and D or L forms follow the SMILES beside them. ξ: configuration not given here. *: point of attachment. X1 = CN(C)c1ccc2c(-c3cc(C(=O)*)ccc3C(=O)[O-])c3ccc(=[N+](C)C)cc-3oc2c1; Ile(3ξ) = CCC(C)[C@H](N)C(=O)O; Ahx = NCCCCCC(=O)O

Holding throughout (assay type): binding
The target of one experiment is T1, fibrin (Homo sapiens, UniProt P02671+P02675+P02679).
T1 sequence (P02671 36-629 limits assumed): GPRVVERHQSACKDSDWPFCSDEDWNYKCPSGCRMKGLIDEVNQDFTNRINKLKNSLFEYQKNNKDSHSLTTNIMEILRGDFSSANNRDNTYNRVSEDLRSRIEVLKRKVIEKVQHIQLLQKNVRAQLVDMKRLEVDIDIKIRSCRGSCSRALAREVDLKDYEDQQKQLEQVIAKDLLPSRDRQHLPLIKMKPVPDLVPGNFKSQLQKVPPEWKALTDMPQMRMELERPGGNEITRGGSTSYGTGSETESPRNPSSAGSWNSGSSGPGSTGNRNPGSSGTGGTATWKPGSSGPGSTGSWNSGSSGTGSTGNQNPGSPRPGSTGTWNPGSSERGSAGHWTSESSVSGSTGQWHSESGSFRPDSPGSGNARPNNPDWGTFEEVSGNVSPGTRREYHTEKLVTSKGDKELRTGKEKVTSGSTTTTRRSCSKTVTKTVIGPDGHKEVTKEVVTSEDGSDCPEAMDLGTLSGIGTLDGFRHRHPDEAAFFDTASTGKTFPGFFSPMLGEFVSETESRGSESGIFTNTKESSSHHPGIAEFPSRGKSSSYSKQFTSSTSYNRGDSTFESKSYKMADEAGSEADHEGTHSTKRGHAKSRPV
T1 sequence (P02675 45-491 limits assumed): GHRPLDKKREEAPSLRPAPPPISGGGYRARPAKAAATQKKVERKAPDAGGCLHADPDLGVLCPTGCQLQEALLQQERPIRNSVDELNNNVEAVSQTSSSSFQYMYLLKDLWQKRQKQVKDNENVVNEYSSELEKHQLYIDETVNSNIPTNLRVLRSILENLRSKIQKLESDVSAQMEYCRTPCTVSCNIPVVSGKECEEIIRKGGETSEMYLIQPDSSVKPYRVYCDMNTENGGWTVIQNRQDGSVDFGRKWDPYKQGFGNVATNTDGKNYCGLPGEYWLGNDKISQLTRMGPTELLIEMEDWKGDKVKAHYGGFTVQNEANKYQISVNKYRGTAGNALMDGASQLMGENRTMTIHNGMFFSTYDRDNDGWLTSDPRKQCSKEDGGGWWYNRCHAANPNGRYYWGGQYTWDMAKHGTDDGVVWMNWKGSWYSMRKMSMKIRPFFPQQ
T1 sequence (P02679 27-437 isoform P02679-2 limits assumed): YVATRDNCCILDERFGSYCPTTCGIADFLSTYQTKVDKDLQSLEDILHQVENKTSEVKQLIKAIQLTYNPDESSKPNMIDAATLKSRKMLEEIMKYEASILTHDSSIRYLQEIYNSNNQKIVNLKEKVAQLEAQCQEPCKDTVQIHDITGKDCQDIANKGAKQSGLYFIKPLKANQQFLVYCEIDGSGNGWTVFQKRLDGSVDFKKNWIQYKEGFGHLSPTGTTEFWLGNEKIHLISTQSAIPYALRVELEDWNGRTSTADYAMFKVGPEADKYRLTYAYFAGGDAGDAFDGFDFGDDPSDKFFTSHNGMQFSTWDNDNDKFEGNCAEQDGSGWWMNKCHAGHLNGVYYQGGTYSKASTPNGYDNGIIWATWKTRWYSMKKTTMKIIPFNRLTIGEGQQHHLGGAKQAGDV
Nature of the experiment: Confocal fluorescence imaging of fibrin-optical agent complex on lesion formed by cross-linking fibrinogen with thrombin. Conditions: 0.6 μM optical agent, 0.1 mg/mL fibrinogen, confocal fluorescence imaging ex 555 nm, em 575 nm. On the procedure:
Site 2/fibrin: 0.1 mg/mL of fibrinogen was mixed with 0.6 μM of an optical agent (Structure XI, see FIG. 3) comprising tetramethylrhodamine as the optical dye. The mixture was coated (approximately 4-20 μL) onto a glass slide and cross-linking of fibrinogen was initiated with 1.3 μg/L of thrombin. Clotting occurred in approximately 15 sec. The slide was imaged using confocal fluorescence imaging (ex 555 nm, em 575 nm).
Site 1/fibrin: 0.1 mg/mL of fibrinogen was mixed with 0.6 μM of an optical agent (Structure X) comprising tetramethylrhodamine as the optical dye. The mixture was coated (approximately 4-20 μL) onto a glass slide and cross-linking of fibrinogen was initiated with 1.3 μg/L of thrombin. Clotting occurred in about 15-20 seconds. The slide was imaged using confocal fluorescence imaging (ex 555 nm, em 575 nm).

In the next experiment the target is T2, DD(E) fragment of fibrin (Homo sapiens, UniProt P02671+P02675+P02679, DEL433-453).
T2 construct: complex of the crosslinked D domains of adjacent fibrin monomers with the central E domain of fibrin
Nature of the experiment: Dissociation constant (Kd) of optical agent for DD(E) fragment of fibrin. The note with it: 24° C.; read-out: Kd (μM) vs. DD(E) @ 24° C. The source says:
Optical agents of the invention include an OD and a FBM covalently bound to each other, either directly or via a linker (OD-L-FBM). The FBM can be a small molecule or a peptide. As used herein, the term “peptide” refers to a chain of amino acids that is about 2 to about 75 amino acids in length (e.g., 3 to 50 amino acids). Affinity of a peptide for fibrin can be expressed in terms of its dissociation constant (Kd), which is the equilibrium constant for the dissociation reaction of the peptide from the DD(E) fragment of fibrin. The term “DD(E) fragment of fibrin” refers to a fibrin subcomponent generated by proteolytic degradation of fibrin with plasmin or trypsin. The DD(E) fragment is a complex of the crosslinked D domains of adjacent fibrin monomers with the central E domain of fibrin (See, for example, Spraggon et al., Nature 389:455462 (1997)). Since DD(E) is a product resulting from the proteolysis of fibrin, one of skill in the art will understand that there may be some slight heterogeneity in its composition. The DD(E) fragment can be biotinylated and immobilized via avidin to a solid substrate (e.g., a multi-well plate). Peptides can be incubated with the immobilized DD(E) fragment in a suitable buffer and binding detected using known methodology. Methods for determining the dissociation constant of the peptide for DD(E) are set forth in WO 01/09188.
As a result of the FBM having affinity for fibrin, the optical agent also has affinity for fibrin. The term “affinity” refers to the capacity of the optical agent to be taken up by, retained by, or bound to the fibrin in the lesion. The affinity of an optical agent can be expressed in terms of its Kd, which is the equilibrium constant for the dissociation reaction of the optical agent from fibrin, and determined as discussed above for the peptide. The dissociation constant of the optical agent for DD(E) can have a value less than about 10 μM (e.g., 0.1 μM to 10 μM). In one embodiment, the dissociation constant value is less than about 5 μM. In another embodiment, the dissociation constant value is less than about 1 μM. The dissociation constant also may have a value less than about 0.3 μM (e.g., 0.2 μM).
In the methods of the present invention, the optical agent forms a fibrin-optical agent complex at the site of the lesion. The ability of the optical agent to form a fibrin-optical agent complex may be measured by examining the optical agent's dissociation constant (Kd) for a DD(E) fragment of fibrin as discussed above.

Experiment [1] has as its target T3, fibrin on a lesion (plasma clot) (Homo sapiens, UniProt P02671+P02675+P02679).
T3 construct: from tissue; host or cells: platelet rich human plasma
T3 sequence (P02671 36-629 limits assumed): T1 sequence (P02671 36-629 limits assumed)
T3 sequence (P02675 45-491 limits assumed): T1 sequence (P02675 45-491 limits assumed)
T3 sequence (P02679 27-437 isoform P02679-2 limits assumed): T1 sequence (P02679 27-437 isoform P02679-2 limits assumed)
As to the kind of experiment: Confocal fluorescence imaging of fibrin-optical agent complex on plasma clot formed by clotting human plasma with thrombin. Conditions: 0.6 μM optical agent, platelet rich human plasma, confocal fluorescence imaging ex 555 nm, em 575 nm. Here is the method: Site 2/plasma clot: human plasma (platelet rich human plasma) was mixed with 0.6 μM of an optical agent (Structure XI, see FIG. 3) comprising tetramethylrhodamine as the optical dye. The mixture was coated onto a glass slide (approximately 4-20 μL) and clotting of plasma was initiated with 1.3 μg/L of thrombin. Clotting occurred within 15 sec. The slide was imaged using confocal fluorescence imaging (ex 555 nm, em 575 nm).

As usually defined, the Kd is the free concentration of one partner at which half of the binding sites on the other are occupied at equilibrium, for simple one-to-one binding. As for `CCC(C)[C@H](NC(=O)[C@H](Cc1c[nH]c2ccccc12)NC(=O)[C@@H]1CSSC[C@H](NC(=O)[C@H](CCC(=O)O)NC(=O)[C@H](Cc2c[nH]c3ccccc23)NC(=O)[C@H](CCC(N)=O)NC(=O)CCCCCNC(=O)c2ccc(C(=O)[O-])c(-c3c4ccc(=[N+](C)C)cc-4oc4cc(N(C)C)ccc34)c2)C(=O)N2CCC[C@H]2C(=O)N[C@@H](Cc2ccc(O)cc2)C(=O)NCC(=O)N[C@@H](CC(C)C)C(=O)N1)C(=O)N[C@@H](CCC(N)=O)C(N)=O` (stereo partly drawn) [Structure XI] ({X1-Ahx}-QWECPYGLCW[Ile(3ξ)]Q-NH2; disulfide 4-9), the “Detection of fibrin based on signal of fibrin-optical agent complexes” value (on fibrin; in experiment [1]) was “Fibrin was detected” throughout. Moreover, the Kd on DD(E) fragment of fibrin was found to be 0.09 µM.
